Results reported in patent US7205299B2, “Indole derivatives having an apoptosis-inducing effect” (Zentaris GmbH, priority 2003, dated 2007).
Values after ≈ are worked out from the molar mass of the structure shown. Values joined by “and” are separate entries in the source; they are usually repeats but may differ in a detail not shown here. Equal entries are not always repeated.

Assays:
[1] = molecular target: bovine tubulin (Bos taurus, UniProt P81947+Q6B856); assay: Inhibition of tubulin polymerization; type: biochemical; details: summary of Table 3
Method: Substances 1, 4, 9, 11, 12, 13 and 15 were tested for their ability to inhibit the polymerization of bovine tubulin in an in-vitro test (D. M. Bollag et al. Cancer Res. 1995, 55, 2325–2333). This test uses-tubulin which has been purified by cycles of polymerization and depolymerization and which is caused to polymerize by adding GTP and heating it. Table 3 gives the EC50 values causing inhibition of the polymerization of tubulin containing 30% associated proteins (MPAs).

[2] = tested on: acute myeloid leukemia cell line LT12; assay: XTT proliferation assay, LT12; type: cell-based; details: Rattus norvegicus
Source text: (§1) For further characterization, substances 1, 2, 4 and 11 were investigated with regard to their effect on mulitdrug-resistance cell lines as compared with that on nonresistant wild-type cell lines.
(§2) The cell lines which were investigated are the murine cell line L1210, the acute myeloid leukemia cell line LT12 and the resistant lines L1210/mdr and LT12/mdr. The murine cell line P388 (methylcholanthrene-induced lymphoid neoplasm) and doxorubicin-resistant P388 were also included as test systems.
(§3) The test results are summarized in Table 2 below: • XTT proliferation assay, EC50 in μg/ml

[3] = tested on: resistant line LT12/mdr; assay: XTT proliferation assay, LT12/mdr; type: cell-based; details: Rattus norvegicus, LT12mdr
Source text: as §1, §2, §3

[4] = tested on: murine cell line L1210; assay: XTT proliferation assay, L1210; type: cell-based; details: Mus musculus
Source text: as §1, §2, §3

[5] = tested on: resistant line L1210/mdr (L1210VCR); assay: XTT proliferation assay, L1210VCR; type: cell-based, murine; details: Mus musculus
Source text: as §1, §2, §3

[6] = tested on: murine cell line P388; assay: XTT proliferation assay, P388; type: cell-based; details: Mus musculus
Source text: as §1, §2, §3

[7] = tested on: doxorubicin-resistant P388; assay: XTT proliferation assay, P388ADR; type: cell-based, murine; details: Mus musculus
Source text: as §1, §2, §3

[8] = molecular target: human DNA topoisomerase II (Homo sapiens, UniProt P11388); assay: kDNA assay for testing topoisomerase II activity; type: biochemical; details: compound 1 at 100, 31.6 and 10 μM; reference compounds 100 μM
Method: In this assay, which was described by P. Arimondo (Anti-Cancer Drug Design 2000, 15(6), 413–421), kDNA is treated with human DNA topoisomerase II in the absence or presence of the test compounds. In the assay, compound 1 according to the invention was tested at three different concentrations (100, 31.6 and 10 μM). A positive control and the reference compounds m-amsacrine (m-amsa), paclitaxel (Taxol) and vincristine, with the concentration in each case being 100 μM, were used for comparison.
2 μL of 10× assay buffer, 1 μL of kDNA (200 ng), 0.5 μL of human topoisomerase II (1 unit) and 15.5 μL of H2O are added by pipette to 1 μL of initially introduced test substance (20 times concentrated in 100% DMSO) and the reagents are mixed.
The reaction assay samples are placed in a heating block which has been preheated to 37° C. and incubated at 37° C. for 10 min. The incubation is stopped after adding 4 μL of 5× Stop buffer and the substance is subsequently extracted with CIA. After that, 20 μL of the supernatant are loaded onto a 1% agarose gel containing 0.25 μg of ethidium bromide/mL and separated at 100 V for 1 h. Finally, the gel is photographed under UV excitation (see FIG. 1). The inhibition of the decatenation of kDNA is quantified using the GelPro® Analyzer Software (see FIG. 2).

[9] = molecular target: human topoisomerase II (Homo sapiens, UniProt P11388); assay: pRYG relaxation assay for testing topoisomerase II activity; type: biochemical; details: compound 1 at 100, 31.6 and 10 μM; reference compounds 316 and 100 μM
Method: In the assay, the compound 1 according to the invention was tested at three different concentrations (100, 31.6 and 10 μM). The reference compounds m-amsacrine, paclitaxel (Taxol) and vincristine were used, at concentrations of 316 and 100 μM, for comparison.
2 μL of 10× assay buffer, 0.5 μL of pRYG DNA (125 ng), 0.5 μL of human topoisomerase II (1 unit) and 16 μL of H2O are added by pipette to 1 μL of initially introduced test substance (20 times concentrated in 100% DMSO) and the reagents are mixed. The reaction assay samples are placed in a heating block which has been preheated to 37° C. and incubated at 37° C. for 30 min. The incubation is stopped after adding 4 μL of 5× Stop buffer. After that, 10 μL of the assay sample are loaded onto a 1.2% agarose gel containing 0.25 μg of ethidium bromide/mL and separated at 100 V for 2.5 h. Finally, the gel is photographed under UV excitation (see FIG. 3). The inhibition of pRYG relaxation is quantified using the GelPro® Analyzer Software (see FIG. 4).

[10] = Saturation solubility in water; type: physicochemical; details: thermodynamic from solid, maximum of 1% DMSO, HPLC-UV
Method: A maximum of 1% DMSO was added for the purpose of solubilizing the substances and improving the wetting of the samples. An HPLC-UV method was used for checking the content.

[11] = tested on: melanoma, MEXF-462; assay: Human xenograft model, melanoma MEXF-462; type: in vivo; details: for tolerability (in words): MEXF462 xenograft, p.o.
Source text: The in-vivo activity and tolerability of compound 2 according to the invention, as compared with those of substances 10 and 14, were examined in a human xenograft model (melanoma, MEXF-462).

[12] = tested on: U-937 cell line; assay: CDDplus nucleosome ELISA test (apoptosis); type: cell-based; details: U-937, 1 nM–10 μM, 24 h of treatment
Method: Nuclear fragmentation is a late consequence of apoptotic processes. The changes which can be observed in this connection can be attributed to DNA strands being cleaved by endonucleases and the fragmentation into nucleosome particles which results therefrom.
For this, the effects of compounds 1 and 2 on the U-937 cell line were investigated at different concentrations (1 nM–10 μM; 24 h of treatment). (See FIG. 5 and FIG. 6).

[13] = tested on: mammary gland, MAXF857; assay: Human xenograft model, mammary gland MAXF857; type: in vivo
Source text: The in-vivo activity and tolerability of compound 2 according to the invention, as compared with those of substance 10, were examined in another human xenograft model (mammary gland, MAXF857).

Sequence of bovine tubulin (P81947 whole entry): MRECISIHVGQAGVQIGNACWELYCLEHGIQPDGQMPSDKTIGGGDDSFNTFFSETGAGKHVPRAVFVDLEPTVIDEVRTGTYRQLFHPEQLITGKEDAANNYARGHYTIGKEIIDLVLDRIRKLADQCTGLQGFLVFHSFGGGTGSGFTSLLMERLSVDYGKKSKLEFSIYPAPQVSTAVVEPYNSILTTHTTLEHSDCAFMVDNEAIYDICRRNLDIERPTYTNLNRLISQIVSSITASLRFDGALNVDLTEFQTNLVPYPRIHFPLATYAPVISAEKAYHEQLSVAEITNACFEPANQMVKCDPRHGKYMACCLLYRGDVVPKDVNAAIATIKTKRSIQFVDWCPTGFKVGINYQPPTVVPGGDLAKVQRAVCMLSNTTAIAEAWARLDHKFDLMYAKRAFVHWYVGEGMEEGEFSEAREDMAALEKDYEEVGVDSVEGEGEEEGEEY
Sequence of bovine tubulin (Q6B856 whole entry): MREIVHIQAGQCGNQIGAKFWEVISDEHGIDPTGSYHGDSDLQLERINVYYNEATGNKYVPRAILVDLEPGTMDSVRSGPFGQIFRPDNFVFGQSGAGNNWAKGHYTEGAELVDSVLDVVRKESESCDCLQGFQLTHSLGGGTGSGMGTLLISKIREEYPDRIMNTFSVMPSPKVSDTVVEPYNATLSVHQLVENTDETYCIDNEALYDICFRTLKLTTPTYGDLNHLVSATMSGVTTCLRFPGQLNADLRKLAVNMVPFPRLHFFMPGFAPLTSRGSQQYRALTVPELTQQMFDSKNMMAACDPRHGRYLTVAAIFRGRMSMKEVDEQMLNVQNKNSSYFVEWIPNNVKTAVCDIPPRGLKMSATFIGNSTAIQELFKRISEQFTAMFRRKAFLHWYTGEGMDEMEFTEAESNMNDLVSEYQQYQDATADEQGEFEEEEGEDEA
Sequence of human DNA topoisomerase II (P11388 whole entry): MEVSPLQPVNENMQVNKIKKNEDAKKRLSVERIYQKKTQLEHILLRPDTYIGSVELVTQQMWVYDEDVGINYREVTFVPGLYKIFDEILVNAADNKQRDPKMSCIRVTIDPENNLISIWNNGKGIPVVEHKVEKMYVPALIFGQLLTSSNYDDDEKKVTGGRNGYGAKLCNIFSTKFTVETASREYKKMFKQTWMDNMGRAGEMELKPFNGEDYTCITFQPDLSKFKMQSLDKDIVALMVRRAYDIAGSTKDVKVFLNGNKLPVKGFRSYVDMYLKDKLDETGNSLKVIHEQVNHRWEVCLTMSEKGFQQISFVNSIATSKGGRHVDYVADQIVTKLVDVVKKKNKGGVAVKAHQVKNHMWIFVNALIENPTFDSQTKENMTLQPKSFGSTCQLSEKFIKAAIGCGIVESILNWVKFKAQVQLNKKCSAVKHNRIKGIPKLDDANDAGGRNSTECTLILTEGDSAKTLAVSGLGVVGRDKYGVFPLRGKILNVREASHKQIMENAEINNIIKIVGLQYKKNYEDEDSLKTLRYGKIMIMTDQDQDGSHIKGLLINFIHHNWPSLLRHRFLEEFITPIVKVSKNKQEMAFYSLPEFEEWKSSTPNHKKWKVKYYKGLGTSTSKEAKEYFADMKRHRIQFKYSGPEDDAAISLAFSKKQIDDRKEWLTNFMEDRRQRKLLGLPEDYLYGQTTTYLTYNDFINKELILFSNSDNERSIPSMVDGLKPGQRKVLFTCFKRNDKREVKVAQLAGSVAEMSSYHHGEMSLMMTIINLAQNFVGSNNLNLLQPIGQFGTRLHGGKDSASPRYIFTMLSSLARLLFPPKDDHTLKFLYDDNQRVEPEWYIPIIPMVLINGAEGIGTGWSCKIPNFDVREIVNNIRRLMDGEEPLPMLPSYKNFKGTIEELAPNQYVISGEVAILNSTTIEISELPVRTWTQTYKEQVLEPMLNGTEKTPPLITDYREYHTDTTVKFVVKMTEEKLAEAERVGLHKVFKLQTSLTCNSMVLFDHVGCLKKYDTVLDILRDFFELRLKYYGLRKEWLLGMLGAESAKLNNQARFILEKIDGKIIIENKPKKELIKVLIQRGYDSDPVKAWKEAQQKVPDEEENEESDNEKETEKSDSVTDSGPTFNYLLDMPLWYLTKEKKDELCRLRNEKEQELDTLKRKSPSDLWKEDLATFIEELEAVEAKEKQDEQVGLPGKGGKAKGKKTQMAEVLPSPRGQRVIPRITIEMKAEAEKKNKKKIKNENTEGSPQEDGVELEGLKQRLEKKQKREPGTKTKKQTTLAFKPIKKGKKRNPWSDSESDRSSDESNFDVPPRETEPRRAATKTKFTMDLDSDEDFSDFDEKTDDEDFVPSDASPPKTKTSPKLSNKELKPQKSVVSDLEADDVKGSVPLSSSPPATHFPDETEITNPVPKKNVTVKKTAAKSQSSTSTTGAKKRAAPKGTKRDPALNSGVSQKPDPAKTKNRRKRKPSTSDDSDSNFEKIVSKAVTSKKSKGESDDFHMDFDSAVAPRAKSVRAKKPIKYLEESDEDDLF
Sequence of human topoisomerase II (P11388 whole entry): as above

With `O=C(Nc1cccc2cccnc12)C(=O)c1cn(Cc2ccc(Cl)cc2)c2ccccc12` [Compound 12, 2-[1-(4-chlorobenzyl)-1H-indol-3-yl]-2-oxo-N-quinolin-8-ylacetamide] the “inhibitory effect on tubulin polymerization (in words)” value (from here on “inhibitory effect”) [1] was “do not exert any effect” and the melting point was 178 °C.
With `COc1cc([C@@H]2c3cc4c(cc3[C@@H](O[C@@H]3O[C@@H]5CO[C@@H](C)O[C@H]5[C@H](O)[C@H]3O)[C@H]3COC(=O)[C@H]23)OCO4)cc(OC)c1O` [Etoposide, etoposide] the EC50 [2] was 0.094 µg/mL (≈ 0.16 µM), the EC50 [3] was greater than 3.6 µg/mL and the EC50 [4] was 0.269 µg/mL (≈ 0.457 µM). The EC50 [5] was greater than 3.16 µg/mL, the EC50 [6] was 0.202 µg/mL (≈ 0.343 µM) and the EC50 [7] was greater than 3.16 µg/mL.
`CC[C@]1(O)C[C@H]2CN(CCc3c([nH]c4ccccc34)[C@@](C(=O)OC)(c3cc4c(cc3OC)N(C=O)[C@H]3[C@@](O)(C(=O)OC)[C@H](OC(C)=O)[C@]5(CC)C=CCN6CC[C@]43[C@@H]65)C2)C1` [Vincristine, vincristine] gave an EC50 [2] of 0.002 µg/mL (≈ 0.00242 µM), an EC50 [3] of 0.134 µg/mL (≈ 0.162 µM) and an EC50 [4] of 0.015 µg/mL (≈ 0.0182 µM). It also gave an EC50 [5] greater than 3.16 µg/mL, an EC50 [6] of 0.004 µg/mL (≈ 0.00485 µM) and an EC50 [7] of 0.93 µg/mL (≈ 1.13 µM). The “inhibition of topoisomerase II, kDNA decatenation” value [8] was “neither paclitaxel nor vincristine was observed to have any inhibitory effects” and the “inhibition of topoisomerase II, pRYG DNA relaxation” value [9] was “neither paclitaxel nor vincristine was observed to have any inhibitory effects”.
With `Cc1ccc2cccc(NC(=O)C(=O)c3cn(Cc4ccc(F)cc4)c4ccccc34)c2n1` [Compound 15, 2-[1-(4-fluorobenzyl)-1H-indol-3-yl]-N-(2-methylquinolin-8-yl)-2-oxoacetamide] the “inhibitory effect” value [1] was “do not exert any effect” and the melting point was 200 to 202 °C.
For `Cc1ccc2cc(NC(=O)C(=O)c3cn(Cc4ccc(Cl)cc4)c4ccccc34)ccc2n1` [Compound 9, 2-[1-(4-chlorobenzyl)-1H-indol-3-yl]-N-(2-methylquinolin-6-yl)-2-oxoacetamide], the “inhibitory effect” value [1] was “very potent inhibitory effect”.
With `O=C(Nc1ccncc1)C(=O)c1cn(Cc2ccc(Cl)cc2)c2ccccc12` [Compound 14, 2-[1-(4-chlorobenzyl)-1H-indol-3-yl]-2-oxo-N-pyridin-4-ylacetamide] the solubility [10] was 0.35 µg/mL (≈ 0.898 µM), the “Deaths n (dead animals / total number)” value ([11]; MEXF462, 16 mg/kg p.o.) was 3/5 mice and the “Deaths n (dead animals / total number)” value ([11]; MEXF462, 32 mg/kg p.o.) was 3/5 mice. For the same molecule, the “tolerability (in words)” value [11] was “less well tolerated”.
With `CC(=O)N(C(=O)C(=O)c1cn(Cc2ccc(Cl)cc2)c2ccccc12)c1ccc2ncccc2c1` [Compound 2, N-{2-[1-(4-chlorobenzyl)-1H-indol-3-yl]-2-oxoacetyl}-N-quinolin-6-ylacetamide] the “nucleosomes in the cell culture supernatant” value [12] was “not possible to demonstrate any significant increase”, the “nucleosomes in the cell lysate” value [12] was “concentration-dependent increase of nucleosomes in the cell lysate” and the solubility [10] was 28.5 µg/mL (≈ 59.1 µM). The “Deaths n (dead animals / total number)” value ([11]; MEXF462, 80 mg/kg p.o.) was 0/6 mice, the “remission of the tumors” value ([11]; MEXF462, 80 mg/kg p.o., 6 animals) was “complete remission of the tumors in the treated animals” and the “Optimum T/C % (day)” value ([11]; MEXF462, 80 mg/kg p.o., day 18) was 0.0% (18). The “tolerability (in words)” value [11] was “very well tolerated (no deaths)”, the “Deaths n (dead animals / total number)” value ([13]; MAXF857, 80 mg/kg p.o.) was 0/6 mice and the “Optimum T/C % (day)” value ([13]; MAXF857, 80 mg/kg p.o., day 10) was 9.6% (10).
`COc1cccc2c1C(=O)c1c(O)c3c(c(O)c1C2=O)C[C@@](O)(C(=O)CO)C[C@@H]3O[C@H]1C[C@H](N)[C@H](O)[C@H](C)O1` [Doxorubicin, doxorubicin] showed an EC50 [2] of 0.029 µg/mL (≈ 0.0534 µM), an EC50 [3] greater than 3.16 µg/mL and an EC50 [4] of 0.269 µg/mL (≈ 0.495 µM). The EC50 [5] was greater than 3.16 µg/mL, the EC50 [6] was 0.204 µg/mL (≈ 0.375 µM) and the EC50 [7] was greater than 3.16 µg/mL.
For `O=C(Nc1cnc2nccnc2c1)C(=O)c1cn(Cc2ccc(Cl)cc2)c2ccccc12` [Compound 1, 2-[1-(4-chlorobenzyl)-1H-indol-3-yl]-2-oxo-N-pyrido[2,3-b]pyrazin-7-ylacetamide], the “inhibitory effect” value [1] was “very potent inhibitory effect”, the “inhibition of topoisomerase II, kDNA decatenation” value [8] was “significantly inhibit topoisomerase II” and the “inhibition of topoisomerase II, pRYG DNA relaxation” value [9] was “significantly inhibit topoisomerase II”. For the same molecule, the “nucleosomes in the cell culture supernatant” value [12] was “not possible to demonstrate any significant increase”, the “nucleosomes in the cell lysate” value [12] was “concentration-dependent increase of nucleosomes in the cell lysate” and the solubility [10] was 25 µg/mL (≈ 56.6 µM).
For `O=C(Nc1ccc2[nH]ncc2c1)C(=O)c1cn(Cc2ccc(Cl)cc2)c2ccccc12` [Compound 4, 2-[1-(4-chlorobenzyl)-1H-indol-3-yl]-N-(1H-indazol-5-yl)-2-oxoacetamide], the “inhibitory effect” value [1] was “very potent inhibitory effect” and the melting point was 203 °C.
With `O=C(Nc1ccc2ncccc2c1)C(=O)c1cn(Cc2ccc(Cl)cc2)c2ccccc12` [Compound 10, 2-[1-(4-chlorobenzyl)-1H-indol-3-yl]-2-oxo-N-quinolin-6-ylacetamide] the solubility [10] was 0.038 µg/mL (≈ 0.0864 µM), the “Deaths n (dead animals / total number)” value ([11]; MEXF462, 55 mg/kg p.o.) was 2/6 mice and the “Deaths n (dead animals / total number)” value ([11]; MEXF462, 70 mg/kg p.o.) was 5/6 mice. The “tolerability (in words)” value [11] was “less well tolerated”, the “Deaths n (dead animals / total number)” value ([13]; MAXF857, 40 mg/kg p.o.) was 2/6 and 2/6 mice and the “tolerability (in words)” value ([13]; MAXF857 xenograft, p.o.) was “substantially less well tolerated than 2”.
